Data: ChEMBL document CHEMBL1777766, “Design, synthesis and in vitro antibacterial activity of 7-(4-alkoxyimino-3-aminomethylpiperidin-1-yl)fluoroquinolone derivatives” (Bioorg Med Chem Lett, 2011)
Converted amounts (≈) assume the structure as drawn.

Tests used:
Escherichia coli [1] = assay: Antibacterial activity against Escherichia coli ATCC 25922; assay type: functional
Streptococcus pneumoniae [2] = assay: Antibacterial activity against Streptococcus pneumoniae ATCC 6301; assay type: functional
Streptococcus pneumoniae [3] = assay: Antibacterial activity against penicillin-resistant Streptococcus pneumoniae 08-2; assay type: functional
Staphylococcus aureus [4] = assay: Antibacterial activity against methicillin-resistant Staphylococcus aureus 08-52; assay type: functional
Staphylococcus aureus [5] = assay: Antibacterial activity against methicillin-sensitive Staphylococcus aureus 08-49; assay type: functional
Klebsiella pneumoniae = assay: Antibacterial activity against Klebsiella pneumoniae ATCC 700603; assay type: functional
Enterococcus faecalis [6] = assay: Antibacterial activity against Enterococcus faecalis ATCC 51299; assay type: functional
Providencia rettgeri = assay: Antibacterial activity against Proteus rettgeri 49006; assay type: functional
Pseudomonas aeruginosa [7] = assay: Antibacterial activity against Pseudomonas aeruginosa 17; assay type: functional
Shigella sonnei = assay: Antibacterial activity against Shigella sonnei 51592; assay type: functional
Enterobacter cloacae = assay: Antibacterial activity against Enterobacter cloacae 45301; assay type: functional
Enterococcus faecalis [8] = assay: Antibacterial activity against vancomycin-resistant Enterococcus faecalis EFL1004; assay type: functional
Staphylococcus aureus [9] = assay: Antibacterial activity against Staphylococcus aureus ATCC 13709; assay type: functional
Serratia marcescens = assay: Antibacterial activity against Serratia marcescens 41002; assay type: functional
[10] = test system: Acinetobacter calcoaceticus; assay: Antibacterial activity against Acinetobacter calcoaceticus 25001; assay type: functional
Salmonella typhi = assay: Antibacterial activity against Bacillus typhi 50035; assay type: functional, Salmonella enterica subsp. enterica serovar Typhi; conditions: Salmonella enterica
Morganella morganii = assay: Antibacterial activity against Morganella morganii 49086; assay type: functional
[11] = test system: Staphylococcus epidermidis; assay: Antibacterial activity against Staphylococcus epidermidis ATCC 12228; assay type: functional
[12] = test system: Staphylococcus epidermidis; assay: Antibacterial activity against methicillin-sensitive Staphylococcus epidermidis 08-17; assay type: functional
Escherichia coli [13] = assay: Antibacterial activity against Extended spectrum beta-lactamase producing Escherichia coli 08-5; assay type: functional
Klebsiella aerogenes = assay: Antibacterial activity against Enterobacter aerogenes 45102; assay type: functional
Proteus vulgaris = assay: Antibacterial activity against Proteus vulgaris 56; assay type: functional
Streptococcus pyogenes = assay: Antibacterial activity against Streptococcus pyogenes 556; assay type: functional
[14] = Cytotoxicity against african green monkey Vero cells after 24 hrs; assay type: cell-based; conditions: chlorocebus sabaeus
[15] = test system: Staphylococcus epidermidis; assay: Antibacterial activity against methicillin-resistant Staphylococcus epidermidis 08-18; assay type: functional
Pseudomonas aeruginosa [16] = assay: Ratio of MIC for compound to MIC for LVFX against Pseudomonas aeruginosa 17; assay type: functional
Pseudomonas aeruginosa [17] = assay: Ratio of MIC for compound to MIC for GMFX against Pseudomonas aeruginosa 17; assay type: functional
Pseudomonas aeruginosa [18] = assay: Ratio of MIC for compound to MIC for CPFX against Pseudomonas aeruginosa 17; assay type: functional

Compound | MIC (Escherichia coli [1]) [µg/mL] | MIC (Streptococcus pneumoniae [2]) [µg/mL] | MIC (Streptococcus pneumoniae [3]) [µg/mL] | MIC (Staphylococcus aureus [4]) [µg/mL] | MIC (Staphylococcus aureus [5]) [µg/mL] | MIC (Klebsiella pneumoniae) [µg/mL] | MIC (Enterococcus faecalis [6]) [µg/mL] | MIC (Providencia rettgeri) [µg/mL] | MIC (Pseudomonas aeruginosa [7]) [µg/mL] | MIC (Shigella sonnei) [µg/mL] | MIC (Enterobacter cloacae) [µg/mL] | MIC (Enterococcus faecalis [8]) [µg/mL] | MIC (Staphylococcus aureus [9]) [µg/mL] | MIC (Serratia marcescens) [µg/mL] | MIC [10] [µg/mL] | MIC (Salmonella typhi) [µg/mL] | MIC (Morganella morganii) [µg/mL] | MIC [11] [µg/mL] | MIC [12] [µg/mL] | MIC (Escherichia coli [13]) [µg/mL] | further results
CCO/N=C1\CCN(c2c(F)cc3c(=O)c(C(=O)O)cn(C4CC4)c3c2OC(F)F)CC1CN (racemic) | 4 (≈ 8.29 µM) | 8 (≈ 16.6 µM) | 4 (≈ 8.29 µM) | 2 (≈ 4.15 µM) | 0.25 (≈ 0.518 µM) | 64 (≈ 133 µM) | 2 (≈ 4.15 µM) | 16 (≈ 33.2 µM) | 16 (≈ 33.2 µM) | 2 (≈ 4.15 µM) | 8 (≈ 16.6 µM) | 4 (≈ 8.29 µM) | 1 (≈ 2.07 µM) | 32 (≈ 66.3 µM) | 4 (≈ 8.29 µM) | 2 (≈ 4.15 µM) | 8 (≈ 16.6 µM) | 2 (≈ 4.15 µM) | 4 (≈ 8.29 µM) | > 128 | MIC (Klebsiella aerogenes): 8 µg/mL (≈ 16.6 µM); MIC (Proteus vulgaris): 8 µg/mL (≈ 16.6 µM); MIC (Streptococcus pyogenes): 16 µg/mL (≈ 33.2 µM); CC50 at 24 h [14]: 203 µg/mL (≈ 421 µM); MIC [15]: 2 µg/mL (≈ 4.15 µM)
CCn1cc(C(=O)O)c(=O)c2cc(F)c(N3CC/C(=N\OC)C(CN)C3)c(F)c21 (racemic) | 4 (≈ 9.79 µM) | 32 (≈ 78.4 µM) | 16 (≈ 39.2 µM) | 8 (≈ 19.6 µM) | 4 (≈ 9.79 µM) | 128 (≈ 313 µM) | 8 (≈ 19.6 µM) | 8 (≈ 19.6 µM) | 32 (≈ 78.4 µM) | 4 (≈ 9.79 µM) | > 128 | 32 (≈ 78.4 µM) | 2 (≈ 4.9 µM) | 8 (≈ 19.6 µM) | 16 (≈ 39.2 µM) | 4 (≈ 9.79 µM) | 4 (≈ 9.79 µM) | 8 (≈ 19.6 µM) | 16 (≈ 39.2 µM) | > 128 | MIC (Klebsiella aerogenes): 8 µg/mL (≈ 19.6 µM); MIC (Proteus vulgaris): 8 µg/mL (≈ 19.6 µM); MIC (Streptococcus pyogenes): 64 µg/mL (≈ 157 µM); CC50 at 24 h [14]: > 500 µg/mL; MIC [15]: 4 µg/mL (≈ 9.79 µM)
CCO/N=C1\CCN(c2c(F)cc3c(=O)c(C(=O)O)cn(CC)c3c2F)CC1CN (racemic) | 8 (≈ 18.9 µM) | 64 (≈ 152 µM) | 32 (≈ 75.8 µM) | 8 (≈ 18.9 µM) | 4 (≈ 9.47 µM) | > 128 | 16 (≈ 37.9 µM) | 32 (≈ 75.8 µM) | 128 (≈ 303 µM) | 128 (≈ 303 µM) | > 128 | 32 (≈ 75.8 µM) | 4 (≈ 9.47 µM) | 16 (≈ 37.9 µM) | 128 (≈ 303 µM) | 8 (≈ 18.9 µM) | 16 (≈ 37.9 µM) | 8 (≈ 18.9 µM) | 32 (≈ 75.8 µM) | > 128 | MIC (Klebsiella aerogenes): 16 µg/mL (≈ 37.9 µM); MIC (Proteus vulgaris): 16 µg/mL (≈ 37.9 µM); MIC (Streptococcus pyogenes): 64 µg/mL (≈ 152 µM); CC50 at 24 h [14]: 410 µg/mL (≈ 969 µM); MIC [15]: 8 µg/mL (≈ 18.9 µM)
CCO/N=C1\CCN(c2c(F)cc3c(=O)c(C(=O)O)cn(CCF)c3c2F)CC1CN (racemic) | 8 (≈ 18.2 µM) | 64 (≈ 145 µM) | 32 (≈ 72.7 µM) | 16 (≈ 36.3 µM) | 8 (≈ 18.2 µM) | > 128 | 16 (≈ 36.3 µM) | 32 (≈ 72.7 µM) | 64 (≈ 145 µM) | 8 (≈ 18.2 µM) | 16 (≈ 36.3 µM) | 64 (≈ 145 µM) | 8 (≈ 18.2 µM) | 16 (≈ 36.3 µM) | 128 (≈ 291 µM) | 8 (≈ 18.2 µM) | 8 (≈ 18.2 µM) | 16 (≈ 36.3 µM) | 64 (≈ 145 µM) | > 128 | MIC (Klebsiella aerogenes): 16 µg/mL (≈ 36.3 µM); MIC (Proteus vulgaris): 16 µg/mL (≈ 36.3 µM); MIC (Streptococcus pyogenes): 64 µg/mL (≈ 145 µM); CC50 at 24 h [14]: > 500 µg/mL; MIC [15]: 8 µg/mL (≈ 18.2 µM)
CO/N=C1\CCN(c2nc3c(cc2F)c(=O)c(C(=O)O)cn3-c2ccc(F)cc2F)CC1CN (racemic) | 1 (≈ 2.1 µM) | 1 (≈ 2.1 µM) | 0.5 (≈ 1.05 µM) | 2 (≈ 4.21 µM) | 0.25 (≈ 0.526 µM) | 32 (≈ 67.3 µM) | 2 (≈ 4.21 µM) | 8 (≈ 16.8 µM) | 4 (≈ 8.41 µM) | 2 (≈ 4.21 µM) | 2 (≈ 4.21 µM) | 4 (≈ 8.41 µM) | 0.5 (≈ 1.05 µM) | 8 (≈ 16.8 µM) | 4 (≈ 8.41 µM) | 2 (≈ 4.21 µM) | 4 (≈ 8.41 µM) | 0.5 (≈ 1.05 µM) | 2 (≈ 4.21 µM) | > 128 | Ratio (Pseudomonas aeruginosa [16]): 2; MIC (Klebsiella aerogenes): 2 µg/mL (≈ 4.21 µM); MIC (Proteus vulgaris): 8 µg/mL (≈ 16.8 µM); Ratio (Pseudomonas aeruginosa [17]): 2; Ratio (Pseudomonas aeruginosa [18]): 2; MIC (Streptococcus pyogenes): 1 µg/mL (≈ 2.1 µM); CC50 at 24 h [14]: 96 µg/mL (≈ 202 µM); MIC [15]: 0.5 µg/mL (≈ 1.05 µM)
CCO/N=C1\CCN(c2nc3c(cc2F)c(=O)c(C(=O)O)cn3-c2ccc(F)cc2F)CC1CN (racemic) | 2 (≈ 4.09 µM) | 2 (≈ 4.09 µM) | 0.5 (≈ 1.02 µM) | 1 (≈ 2.04 µM) | 0.25 (≈ 0.511 µM) | 32 (≈ 65.4 µM) | 1 (≈ 2.04 µM) | 8 (≈ 16.3 µM) | 4 (≈ 8.17 µM) | 2 (≈ 4.09 µM) | 2 (≈ 4.09 µM) | 4 (≈ 8.17 µM) | 0.25 (≈ 0.511 µM) | 16 (≈ 32.7 µM) | 4 (≈ 8.17 µM) | 2 (≈ 4.09 µM) | 4 (≈ 8.17 µM) | 0.25 (≈ 0.511 µM) | 1 (≈ 2.04 µM) | > 128 | Ratio (Pseudomonas aeruginosa [16]): 2; MIC (Klebsiella aerogenes): 2 µg/mL (≈ 4.09 µM); MIC (Proteus vulgaris): 4 µg/mL (≈ 8.17 µM); Ratio (Pseudomonas aeruginosa [17]): 2; Ratio (Pseudomonas aeruginosa [18]): 2; MIC (Streptococcus pyogenes): 4 µg/mL (≈ 8.17 µM); CC50 at 24 h [14]: 72.6 µg/mL (≈ 148 µM); MIC [15]: 0.25 µg/mL (≈ 0.511 µM)
CO/N=C1\CCN(c2c(F)cc3c(=O)c(C(=O)O)cn(C4CC4)c3c2OC)CC1CN (racemic) | 4 (≈ 9.25 µM) | 4 (≈ 9.25 µM) | 4 (≈ 9.25 µM) | 4 (≈ 9.25 µM) | 0.25 (≈ 0.578 µM) | 64 (≈ 148 µM) | 4 (≈ 9.25 µM) | 8 (≈ 18.5 µM) | 8 (≈ 18.5 µM) | 4 (≈ 9.25 µM) | > 128 | 8 (≈ 18.5 µM) | 0.5 (≈ 1.16 µM) | 8 (≈ 18.5 µM) | 4 (≈ 9.25 µM) | 4 (≈ 9.25 µM) | 4 (≈ 9.25 µM) | 1 (≈ 2.31 µM) | 4 (≈ 9.25 µM) | > 128 | MIC (Klebsiella aerogenes): 4 µg/mL (≈ 9.25 µM); MIC (Proteus vulgaris): 8 µg/mL (≈ 18.5 µM); MIC (Streptococcus pyogenes): 8 µg/mL (≈ 18.5 µM); CC50 at 24 h [14]: 395 µg/mL (≈ 914 µM); MIC [15]: 4 µg/mL (≈ 9.25 µM)
CCO/N=C1\CCN(c2c(F)cc3c(=O)c(C(=O)O)cn(C4CC4)c3c2OC)CC1CN (racemic) | 4 (≈ 8.96 µM) | 8 (≈ 17.9 µM) | 4 (≈ 8.96 µM) | 2 (≈ 4.48 µM) | 0.25 (≈ 0.56 µM) | 128 (≈ 287 µM) | 4 (≈ 8.96 µM) | 32 (≈ 71.7 µM) | 32 (≈ 71.7 µM) | 8 (≈ 17.9 µM) | > 128 | 8 (≈ 17.9 µM) | 1 (≈ 2.24 µM) | 32 (≈ 71.7 µM) | 8 (≈ 17.9 µM) | 4 (≈ 8.96 µM) | 16 (≈ 35.8 µM) | 2 (≈ 4.48 µM) | 4 (≈ 8.96 µM) | > 128 | MIC (Klebsiella aerogenes): 16 µg/mL (≈ 35.8 µM); MIC (Proteus vulgaris): 32 µg/mL (≈ 71.7 µM); MIC (Streptococcus pyogenes): 8 µg/mL (≈ 17.9 µM); CC50 at 24 h [14]: 173 µg/mL (≈ 388 µM); MIC [15]: 2 µg/mL (≈ 4.48 µM)
